This assay concerns the target SARS-CoV-2 Papain-Like Protease (PLpro) (Severe acute respiratory syndrome coronavirus 2 (2019-nCoV) (SARS-CoV-2), UniProt P0DTD1). The assay can be described thus: biochemical. Particulars: read-out: PLpro IC50.
[1] abbreviates: PLpro enzymatic fluorescence assay, class symbols.
Setting [2] is: SARS-CoV-2 PLpro enzymatic fluorescence assay.

SMILES strings stand for the structures. Read-outs that look alike come from different tables or passages of the source. Where only a bound is given, the exact number is not on record here.

For 13 compounds, IC50 results are on record in US20250025443A1, “COMPOUNDS AND METHODS FOR TREATING CORONA VIRUSES” (CLEAR CREEK BIO, INC., priority 2021, published 2025).

For `C=C(C)c1cc(C2(NC(=O)c3cc(OC[C@@H]4CCN4)ccc3C)CC2)c2cccnc2c1` [Compound 613, (S)-5-(Azetidin-2-ylmethoxy)-2-methyl-N-(1-(7-(prop-1-en-2-yl)quinolin-5-yl)cyclopropyl)benzamide], under setting [1], the IC50 was under 100 nM.

As for `C=Cc1cc(C2(NC(=O)c3cc(OCCNC)ccc3C)CC2)c2cccnc2c1` [Compound 615, 2-Methyl-5-(2-(methylamino)ethoxy)-N-(1-(7-vinylquinolin-5-yl)cyclopropyl)benzamide], the IC50 under setting [1] was under 100 nM.

Turning to `C=C(C)c1cc(C2(NC(=O)c3cc(OCCNC)ccc3C)CC2)c2cccnc2c1` [Compound 616, 2-Methyl-5-(2-(methylamino)ethoxy)-N-(1-(7-(prop-1-en-2-yl)quinolin-5-yl)cyclopropyl)benzamide], the IC50 under setting [1] was under 100 nM.

With `COc1cc(C2(NC(=O)c3cc(OC[C@@H]4CCN4C)ccc3C)CC2)c2ccc(Cl)nc2c1` [Compound 617, (S)-N-(1-(2-Chloro-7-methoxyquinolin-5-yl)cyclopropyl)-2-methyl-5-((1-methylazetidin-2-yl)methoxy)benzamide], under setting [1], the IC50 is under 100 nM.

As to `Cc1ccc(OC[C@@H]2CCN2C)cc1C(=O)NC1(c2cc(-n3cccn3)cc3ncccc23)CC1` [Compound 619, (S)-N-(1-(7-(1H-Pyrazol-1-yl)quinolin-5-yl)cyclopropyl)-2-methyl-5-((1-methylazetidin-2-yl)methoxy)benzamide], the half-maximal inhibitory concentration (IC50) under setting [1] was under 100 nM.

Consider `C#Cc1cc(C2(NC(=O)c3cc(OC[C@@H]4CCN4C)ccc3C)CC2)c2cccnc2c1` [Compound 620, (S)-N-(1-(7-Ethynylquinolin-5-yl)cyclopropyl)-2-methyl-5-((1-methylazetidin-2-yl)methoxy)benzamide], for which, under setting [1], the IC50 was under 100 nM.

On to `Cc1ccc(OC[C@@H]2CCN2C)cc1C(=O)NC1(c2cc(-c3cc4ccccc4s3)cc3ncccc23)CC1` [Compound 621, (S)-N-(1-(7-(Benzo[b]thiophen-2-yl)quinolin-5-yl)cyclopropyl)-2-methyl-5-((1-methylazetidin-2-yl)methoxy)benzamide], for which the IC50 under setting [1] was under 100 nM.

With `Cc1ccc(OC[C@@H]2CCN2C)cc1C(=O)NC1(c2cc(-c3ccc(Cl)s3)cc3ncccc23)CC1` [Compound 623, (S)-N-(1-(7-(5-Chlorothiophen-2-yl)quinolin-5-yl)cyclopropyl)-2-methyl-5-((1-methylazetidin-2-yl)methoxy)benzamide], the IC50 under setting [1] is under 100 nM.

In the case of `Cc1ccc(OC[C@@H]2CCN2C)cc1C(=O)NC1(c2cc(Cl)cc3ncccc23)CC1` [Compound 624, (S)-N-(1-(7-Chloroquinolin-5-yl)cyclopropyl)-2-methyl-5-((1-methylazetidin-2-yl)methoxy)benzamide], under setting [2], the IC50 was under 100 nM.

Turning to `COc1cc(C2(NC(=O)c3cc(OC[C@@H]4CCN4C)ccc3C)CC2)c2ccc(C)nc2c1` [Compound 625, (S)-N-(1-(7-Methoxy-2-methylquinolin-5-yl)cyclopropyl)-2-methyl-5-((1-methylazetidin-2-yl)methoxy)benzamide], the half-maximal inhibitory concentration (IC50) under setting [1] was under 100 nM.

With `COc1cc(C2(NC(=O)c3cc(OCCNC(C)(C)C)ccc3C)CC2)c2cccnc2c1` [Compound 626, 5-(2-(tert-Butylamino)ethoxy)-N-(1-(7-methoxyquinolin-5-yl)cyclopropyl)-2-methylbenzamide], the IC50 under setting [1] is under 100 nM.

Turning to `Cc1ccc(OC[C@@H]2CCN2C)cc1C(=O)NC1(c2cc(N(C)C)cc3ncccc23)CC1` [Compound 627, (S)-N-(1-(7-(Dimethylamino)quinolin-5-yl)cyclopropyl)-2-methyl-5-((1-methylazetidin-2-yl)methoxy)benzamide], under setting [2], the IC50 is under 100 nM.

As for `CNCCOc1ccc(C)c(C(=O)NC2(c3cc(-c4cccs4)cc4ncccc34)CC2)c1` [Compound 630, 2-Methyl-5-(2-(methylamino)ethoxy)-N-(1-(7-(thiophen-2-yl)quinolin-5-yl)cyclopropyl)benzamide], the IC50 under setting [1] is under 100 nM.

The IC50 is the concentration at which inhibition is half-maximal.
